Measurements taken from ChEMBL document CHEMBL1201862, “PubChem BioAssay data set” (2004).
Calls of active or inactive are those of the source.

Tests used:
Beta-lactamase [1] = molecular target: T1, Beta-lactamase (Pseudomonas aeruginosa, UniProt Q79MP6); assay: IMP-1 metallo-beta-lactamase inhibitors, dose response, selectivity assay for VIM-2 inhibitor project, biochemical, epi-absorbance (AID 1920)
Beta-lactamase [2] = molecular target: Beta-lactamase (Salmonella choleraesuis (strain SC-B67), UniProt Q5J463); assay: Epi-absorbance-based counterscreen for selective VIM-2 inhibitors: dose response biochemical high throughput screening assay to identify inhibitors of TEM-1 serine-beta-lactamase.
Beta-lactamase [3] = molecular target: T1, Beta-lactamase; assay: […] counterscreen for selective VIM-2 inhibitors: dose response biochemical high throughput screening assay to identify inhibitors of IMP-1 metallo-beta-lactamase.
Protein Wnt-3a = Protein Wnt-3a (Mus musculus, UniProt P27467); assay: Wnt3a-driven reporter signaling inhibition, dose response, selectivity assay for Gli-SUFU antagonist project, Wnt-LIGHT cells, luminescence (AID 651570); format: functional; conditions: read-out: IC50_Mean;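 also: Wnt-LIGHT reporter cells stimulated with conditioned medium from Wnt3a-producing cells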
[4] = molecular target: Matrix metalloproteinase-14 (Homo sapiens, UniProt P50281); assay: Dose Response confirmation of uHTS hits for a small molecule inhibitors of MT1-MMP activation in a fluorescence assay set 1.; format: functional
[5] = microbe, parasite or virus in culture; format: functional; conditions: Mycobacterium tuberculosis
[6] = cytotoxicity toward NIH3T3 fibroblasts, dose response, counter-screen, cell-based, ATP luminescence, mouse fibroblasts (AID 2010); format: functional;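 also: cells exposed to compound for about 90 hours before reading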
[7] = molecular target: COUP transcription factor 2 (Homo sapiens, UniProt P24468); assay: Luminescence-based cell-based high throughput dose response assay to identify inhibitors of COUP-TFII (NR2F2).; format: functional;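 also: HEK293 cells transiently cotransfected with COUP-TFII expression vector and reporter; luciferase reporter luminescence driven by COUP-TFII from the pX2-168 reporter plasmid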
[8] = inhibitors of intracellular T. cruzi replication, confirmation, NIH3T3 host cells, beta-gal luminescence (AID 2044); format: functional, cell-based;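 also: intracellular parasites grown in NIH/3T3 mouse fibroblasts as host cells; luminescent beta-galactosidase reporter signal from transgenic T. cruzi replicating inside host cells; inhibitors lower the luminescence signal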
Interleukin-8 [9] = molecular target: T2, Interleukin-8 (Homo sapiens, UniProt P10145); assay: Dose Response confirmation of uHTS small molecule hits for cystic fibrosis induced NFkb Inhibitors in a PAF-induced IL8 counterscreen.; format: functional; conditions: read-out: IC50_Mean
[10] = HepG2 cell cytotoxicity, dose response, cytotoxicity control for Shn3 inhibitor project, CellTiter-Glo, cherry-picked (AID 624134); format: functional, cell-based
Interleukin-8 [11] = molecular target: T2, Interleukin-8; assay: Dose Response confirmation of uHTS small molecule hits for cystic fibrosis induced NFkb Inhibitors in a TNFa-induced IL8 counterscreen.; format: functional; conditions: read-out: IC50_Mean
HEK293 = assay: inhibitors of LMP1-driven NF-kB reporter, dose response, cell-based, HEK293, luciferase, cherry-pick (AID 588343); format: functional; conditions: Homo sapiens
[12] = control 3'UTR Renilla luciferase suppression, dose response, counter-screen for Shn3 inhibitor project, cell-based, Clone20-Shn3RL, cherry-picked (AID 624133); format: functional
[13] = inhibitors of control Renilla luciferase reporter, dose response, counter-screen for Shn3 3'UTR targeting project, Clone20-Shn3RL cells, dual-Glo, cherry-pick, set 2 (AID 720724); format: functional, cell-based; conditions: Dual-Go Shn3RL
[14] = reduction of Shn3 3'UTR firefly luciferase signal, dose response, Schnurri-3 inhibitor project, cell-based, Clone20 osteoblasts, cherry-pick, set 2 (AID 720490); format: functional;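 also: actives lower the luminescence signal as inhibitors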
[15] = Shn3 3'UTR reporter inhibitors, dose response, cell-based, Clone20 osteoblasts, firefly luciferase, cherry-picked (AID 624132); format: functional;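 also: firefly luciferase luminescence from reporter carrying the Shn3 3'UTR in osteoblasts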
[16] = HepG2 cell cytotoxicity, dose response, cytotoxicity control, ATP luminescence, cherry-pick, activator set 2 (AID 1053143); format: functional, cell-based
[17] = ADAM10 inhibitors, peptide cleavage, dose response, biochemical, QFRET (AID 743254);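 also: ADAM10 enzyme with the DM2 quenched FRET peptide as substrate; EDANS fluorescence gain as the protease cuts the substrate; inhibitor potency against ADAM10 proteolytic activity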
[18] = molecular target: T3, Disintegrin and metalloproteinase domain-containing protein 17 (Homo sapiens, UniProt P78536); assay: ADAM17 protease inhibitors, dose response, counter-screen for ADAM10 exosite inhibitor project, biochemical, quenched FRET substrate (AID 743253)
[19] = molecular target: T3, Disintegrin and metalloproteinase domain-containing protein 17; assay: exosite inhibitors of ADAM17, dose response, biochemical (AID 743260)
[20] = cytotoxicity in HEK-293T cells, dose response, cytotoxicity control for TCR NF-kB inhibitor project, luminescence, T-cell screen hits (AID 489026); format: functional, cell-based;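 also: cells exposed to compound about 14 hours before the viability readout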
A549 = assay: A549 cell toxicity, dose response, cytotoxicity control, plate reader, cherry-pick samples (AID 687028); format: functional, cell-based; conditions: Homo sapiens
BJ [21] = assay: cytotoxicity toward BJ-TERT fibroblasts, dose response, cell-based, RAS-independent, luminescence (AID 1933); format: functional; conditions: Homo sapiens
[22] = PAX2 cell-based inhibition, dose response, selectivity assay for PAX8 inhibitor project, plate reader, dry powder samples (AID 743048); format: functional;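 also: HEK293 cells carrying a WT1 promoter luciferase reporter driven by expressed Pax2; potency is for inhibition of Pax2 driven reporter signal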
[23] = IOSE-T80 ovarian epithelial cell cytotoxicity, dose response, cytotoxicity control for PAX8 inhibitor project, plate reader, dry powder samples (AID 743045); format: functional, cell-based
[24] = NIH:OVCAR-3 ovarian cancer cell cytotoxicity, dose response, PAX8 inhibitor project, plate reader, dry powder samples (AID 743044); format: functional, cell-based
[25] = Luminescence Cell-Based Dose Response HTS to Identify Inhibitors of 5'UTR Stem-Loop Driven Prion Protein mRNA Translation in H4 Neuroglioblastoma Cells. [Related pubchem assays: 1827 (Project Summary), 1813 (Primary HTS)]; format: functional
[26] = cytotoxicity in OVCAR4 cells, dose response, cytotoxicity control for PAX8 inhibitor project, cell-based, plate reader, dry powder, SA11 (AID 743150); format: functional; conditions: OVCAR-4
[27] = IGROV1 ovarian cancer cell cytotoxicity, dose response, PAX8 inhibitor project, plate reader, dry powder samples (AID 743043); format: functional, cell-based; conditions: IGROV-1
BJ [28] = assay: cytotoxicity toward BJ-TERT-LT-ST fibroblasts, dose response, cell-based, RAS-independent, luminescence (AID 1935); format: functional; conditions: Homo sapiens;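 also: BJ fibroblasts immortalized with TERT plus LT and ST oncogenes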
[29] = A2780 ovarian cancer cell cytotoxicity, dose response, cytotoxicity control, plate reader, dry powder samples (AID 743046); format: functional, cell-based
BJ [30] = assay: cytotoxicity toward Ras-transformed BJeLR fibroblasts, dose response, cell-based, alamar blue fluorescence, cherrypicked samples (AID 2631); format: functional; conditions: Homo sapiens;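 also: confirmatory dose-response assay in RAS-dependent BJ fibroblasts engineered with TERT, LT and ST, with cytotoxicity read by fluorescence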
[31] = cytotoxicity toward DRD oncogenic fibroblasts, dose response, cell-based, non-viral oncogenic, luminescence (AID 1934); format: functional; conditions: Homo sapiens
[32] = inhibitors of firefly luciferase expression or activity, dose response, H4 neuroglioma cells, luminescence (AID 1990); format: functional, cell-based
BJ [33] = assay: cells; format: functional, cell-based; conditions: Homo sapiens
Paired box protein Pax-8 = Paired box protein Pax-8 (Homo sapiens, UniProt Q06710); assay: inhibitors of PAX8-driven TPO luciferase reporter, dose response, RMG-I cells, cherry-pick (AID 687027); format: functional, cell-based;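 also: luciferase reporter driven by Pax8 target thyroperoxidase promoter measured by SteadyGlo luminescence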
[34] = cytotoxicity in COV434 cells, dose response, cytotoxicity control for PAX8 inhibitor project, cell-based, plate reader, dry powder, SA7 (AID 743145); format: functional
[35] = cytotoxicity in OV-90 ovarian cancer cells, dose response, PAX8 inhibitor project, cell-based, plate reader, dry powder, SA8 (AID 743149); format: functional
[36] = cytotoxicity dependent on PAX8, dose response, cell-based, plate reader, dry powder (AID 743049); format: functional
[37] = cytotoxicity in COV362 ovarian cancer cells, dose response, cytotoxicity control for PAX8 inhibitor project, cell-based, plate reader, dry powder, SA12 (AID 743144); format: functional
[38] = inhibitors of SNCA 5'UTR-driven reporter translation, confirmation, H4 neuroglioma cells, luminescence (AID 1988); format: functional, cell-based
[39] = PAX5 activity inhibitors, dose response, selectivity assay for PAX8 inhibitor project, cell-based, plate reader, dry powder samples (AID 743047); format: functional;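 also: HEK293 cells carrying a Pax5 driven CD19 promoter luciferase reporter; potency of inhibitors that lower reporter luminescence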
[40] = HEK293T cytotoxicity, dose response, cytotoxicity control for miR-122 modulator project, cell-based, activator set, cherry-pick (AID 720690); format: functional;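 also: HEK293T human cells scored for general mammalian cytotoxicity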
[41] = cytotoxicity in OVCAR8 ovarian cancer cells, dose response, PAX8 project, cell-based, plate reader, dry powder samples (AID 743197); format: functional; conditions: OVCAR-8
[42] = miR-122 activators in hepatoma reporter cells, dose response, cell-based, Huh7 psiCHECK-miR122, Renilla luciferase, cherry-picked (AID 651956); format: functional;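 also: huh7 hepatoma cells stably carrying a psiCHECK-2 miR-122 sensor plasmid; renilla luciferase signal reporting endogenous miR-122 activity after 48 h compound exposure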

T1 sequence (Q79MP6 whole entry): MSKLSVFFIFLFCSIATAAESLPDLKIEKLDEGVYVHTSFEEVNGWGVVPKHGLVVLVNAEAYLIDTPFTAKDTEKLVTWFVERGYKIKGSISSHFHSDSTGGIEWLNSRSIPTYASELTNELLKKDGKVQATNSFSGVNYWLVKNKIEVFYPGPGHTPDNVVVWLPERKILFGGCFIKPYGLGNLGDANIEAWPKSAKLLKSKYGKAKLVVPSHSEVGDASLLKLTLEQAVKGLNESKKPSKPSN
T3 sequence (P78536 whole entry, the tested form may be a part): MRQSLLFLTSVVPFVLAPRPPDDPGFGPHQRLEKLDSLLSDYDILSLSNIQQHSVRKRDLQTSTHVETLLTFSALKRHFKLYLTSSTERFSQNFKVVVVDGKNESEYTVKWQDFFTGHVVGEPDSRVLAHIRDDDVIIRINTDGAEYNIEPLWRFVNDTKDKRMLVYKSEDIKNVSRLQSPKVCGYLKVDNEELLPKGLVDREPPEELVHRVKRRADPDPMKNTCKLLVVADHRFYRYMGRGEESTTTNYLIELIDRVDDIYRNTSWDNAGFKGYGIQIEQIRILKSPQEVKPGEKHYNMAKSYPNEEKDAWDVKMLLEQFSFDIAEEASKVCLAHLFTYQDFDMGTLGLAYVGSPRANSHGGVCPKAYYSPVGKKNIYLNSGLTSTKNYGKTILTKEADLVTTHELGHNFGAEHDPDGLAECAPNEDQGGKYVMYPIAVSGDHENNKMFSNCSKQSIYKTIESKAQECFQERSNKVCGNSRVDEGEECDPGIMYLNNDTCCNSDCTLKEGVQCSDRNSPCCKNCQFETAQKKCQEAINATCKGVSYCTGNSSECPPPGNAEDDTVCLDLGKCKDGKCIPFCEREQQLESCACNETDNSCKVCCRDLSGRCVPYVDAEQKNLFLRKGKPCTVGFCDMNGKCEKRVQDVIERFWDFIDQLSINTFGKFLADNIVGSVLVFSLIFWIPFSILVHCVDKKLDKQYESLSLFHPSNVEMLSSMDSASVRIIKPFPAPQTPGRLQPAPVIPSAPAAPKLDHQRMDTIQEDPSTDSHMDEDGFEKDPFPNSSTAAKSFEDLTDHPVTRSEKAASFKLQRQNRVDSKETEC
Sequence of Paired box protein Pax-8 (Q06710 whole entry): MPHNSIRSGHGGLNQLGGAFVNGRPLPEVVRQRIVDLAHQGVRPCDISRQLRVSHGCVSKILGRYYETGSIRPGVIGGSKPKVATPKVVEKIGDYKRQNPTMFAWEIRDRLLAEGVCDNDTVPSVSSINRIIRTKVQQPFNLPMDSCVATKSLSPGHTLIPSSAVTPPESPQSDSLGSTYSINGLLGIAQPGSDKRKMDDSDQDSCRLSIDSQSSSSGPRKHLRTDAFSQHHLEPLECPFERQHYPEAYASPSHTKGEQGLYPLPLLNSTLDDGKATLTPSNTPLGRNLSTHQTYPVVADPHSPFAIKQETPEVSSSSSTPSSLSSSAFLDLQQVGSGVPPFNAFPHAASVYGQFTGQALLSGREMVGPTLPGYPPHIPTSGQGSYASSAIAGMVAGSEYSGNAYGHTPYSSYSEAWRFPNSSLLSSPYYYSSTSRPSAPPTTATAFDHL
T2 sequence (P10145 whole entry): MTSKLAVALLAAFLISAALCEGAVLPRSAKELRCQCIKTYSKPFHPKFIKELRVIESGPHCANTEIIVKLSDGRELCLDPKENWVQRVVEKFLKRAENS
Sequence of Protein Wnt-3a (P27467 whole entry): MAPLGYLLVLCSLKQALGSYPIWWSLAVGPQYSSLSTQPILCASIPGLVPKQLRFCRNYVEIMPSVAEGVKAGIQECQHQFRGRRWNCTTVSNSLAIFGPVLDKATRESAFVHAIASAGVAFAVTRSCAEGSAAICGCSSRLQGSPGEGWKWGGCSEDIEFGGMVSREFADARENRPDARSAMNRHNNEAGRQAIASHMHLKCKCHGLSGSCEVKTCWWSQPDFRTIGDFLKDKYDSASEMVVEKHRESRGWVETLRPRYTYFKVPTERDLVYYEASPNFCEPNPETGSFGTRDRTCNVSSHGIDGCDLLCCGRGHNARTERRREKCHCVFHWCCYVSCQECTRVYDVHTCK
Sequence of COUP transcription factor 2 (P24468 whole entry): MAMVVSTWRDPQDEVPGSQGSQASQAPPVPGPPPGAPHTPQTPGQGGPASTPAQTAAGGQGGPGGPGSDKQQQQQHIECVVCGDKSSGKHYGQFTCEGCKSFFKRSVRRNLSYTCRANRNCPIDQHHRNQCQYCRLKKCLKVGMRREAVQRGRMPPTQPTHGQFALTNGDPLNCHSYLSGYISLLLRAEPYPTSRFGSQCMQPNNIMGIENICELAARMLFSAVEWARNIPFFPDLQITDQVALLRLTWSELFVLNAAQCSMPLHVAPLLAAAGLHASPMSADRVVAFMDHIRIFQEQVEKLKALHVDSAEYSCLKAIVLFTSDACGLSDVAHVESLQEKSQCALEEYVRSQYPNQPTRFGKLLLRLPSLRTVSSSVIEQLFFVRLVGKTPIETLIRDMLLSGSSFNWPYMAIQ
Sequence of Beta-lactamase (Salmonella choleraesuis (strain SC-B67), UniProt Q5J463) (Q5J463 whole entry): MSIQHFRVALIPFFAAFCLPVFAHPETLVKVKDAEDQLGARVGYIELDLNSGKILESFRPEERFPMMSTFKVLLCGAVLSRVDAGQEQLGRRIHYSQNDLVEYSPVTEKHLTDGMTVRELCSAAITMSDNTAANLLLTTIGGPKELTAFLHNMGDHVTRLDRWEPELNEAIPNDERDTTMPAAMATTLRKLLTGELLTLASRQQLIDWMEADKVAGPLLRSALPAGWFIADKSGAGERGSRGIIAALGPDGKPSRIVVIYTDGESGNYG

## O=C(c1ccco1)N1N=C(c2ccc(Cl)cc2)CC1c1ccco1 (configuration not stated)
Beta-lactamase [1]
  IC50: > 59.6 µM (inactive)
Beta-lactamase [2]
  IC50: > 59.6 µM (inactive)
Beta-lactamase [3]
  IC50: > 59.6 µM (inactive)

## COc1ccccc1C(=O)NC(=S)/C=C1/N(C)c2ccccc2C1(C)C
Protein Wnt-3a
  IC50: 15.2 µM (active)
[4]
  IC50: > 80 µM (inactive)
[5]
  CC50: > 40 µM (active)

## Cc1c(C(=O)N2CCN(Cc3ccc4c(c3)OCO4)CC2)sc2ncnc(N3CCN(c4ccccc4F)CC3)c12
[6]
  EC50: > 60 µM (not active)
[7]
  IC50: 6.85 µM (active)
[8]
  EC50: 0.487 µM (active)

## Cc1ccccc1C(=O)N1CCN(c2ccc(NC(=O)CSc3ccc(Cl)cc3)cc2)CC1
Interleukin-8 [9]
  IC50: 1.6 µM (active)
[10]
  AC50: 44.1 µM (active)
Interleukin-8 [11]
  IC50: 39.9 µM (inactive)
HEK293
  AC50: 0.378 µM (active)
[12]
  AC50: 25.2 µM (active)
[13]
  AC50: 38.8 µM (active)
[14]
  AC50: 6.91 µM (active)
[15]
  AC50: 4.23 µM (active)

## Cc1cc2nn(-c3ccc(Cl)cc3)nc2cc1N
[16]
  AC50: 21.4 µM (active)

## O=C(NCC1CCCO1)C(c1cccs1)N(Cc1ccccc1)C(=O)c1ccc(-c2ccccc2)[nH]1 (configuration not stated)
[17]
  IC50: > 69.5 µM (inactive)
[18]
  IC50: > 69.5 µM (inactive)
[19]
  IC50: > 69.5 µM (inactive)

## Oc1cc(-c2cccc(F)c2)nc2ccccc12
[20]
  IC50: > 80 µM (inactive)
A549
  AC50: 18.8 µM (active)

## CCOc1ccc2c(c1)C(C)=CC(C)(C)N2S(=O)(=O)c1ccc(NC(C)=O)cc1
BJ [21]
  EC50: 0.642 µM (active)
[22]
  AC50: 31.8 µM (active)
[23]
  AC50: 2.54 µM (active)
[24]
  AC50: 41.1 µM (active)
[25]
  EC50: 0.162 µM (active)
[26]
  AC50: 1.83 µM (active)
[27]
  AC50: 15.9 µM (active)
BJ [28]
  EC50: 0.428 µM (inconclusive)
[29]
  AC50: 4.06 µM (active)
BJ [30]
  EC50: < 0.104 µM (active)
[31]
  EC50: 0.722 µM (active)
[32]
  EC50: 0.199 µM (active)
BJ [33]
  EC50: 1.54 µM (active)
Paired box protein Pax-8
  AC50: 1.61 µM (active)
[34]
  AC50: 1.53 µM (active)
[35]
  AC50: 2.6 µM (active)
[36]
  AC50: 12.1 µM (active)
[37]
  AC50: 4.1 µM (active)
[38]
  EC50: 0.129 µM (active)
[39]
  AC50: 89.2 µM (active)

## C[C@@H]1CN([C@@H](C)CO)C(=O)Cc2cc(NC(=O)Nc3ccc(C(F)(F)F)cc3)ccc2O[C@H]1CN(C)Cc1ccc(Oc2ccccc2)cc1
Paired box protein Pax-8
  AC50: 10.3 µM (active)
[40]
  AC50: 19.9 µM (active)
[41]
  AC50: 39.9 µM (active)
[42]
  AC50: 19.9 µM (active)
